This note sets out measurements from patent US20150005281A1, “PYRIMIDINE-2,4-DIAMINE DERIVATIVES AS KINASE INHIBITORS” (Cellzome Limited, priority 2011, published 2015).

What is called pIC50 is the negative decadic logarithm of the IC50, by convention in mol/L.

Common to all, as to assay type: binding
Assay [1] has as its target T1, TYK2 (Homo sapiens, UniProt P29597).
T1 construct: endogenous in cells; host or cells: Molt4 (ATCC CRL-1582) and Ramos (ATCC CRL-1596) cells; mixed lysate 1:2
Description: Kinobeads assay with immunodetection, TYK2. To be noted: for pIC50: Kinobeads assay, mixed Molt4/Ramos lysate, read-out: Inhibition values (IC50) Tyk2. Put shortly:
(§1)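 Competition binding: test compounds (9-step 1:3 dilutions of a 5 mM DMSO stock) compete with affinity matrix ligand for kinases in Molt4 plus Ramos lysate (ratio 1:2, 10 mg/mL) over 3 h in a cold room. Captured kinases are detected by specific antibodies in dot blot, and IC50 values are derived per kinase.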

The target in assay [2] is T2, JAK3 (Homo sapiens, UniProt P52333).
T2 construct: endogenous in cells; host or cells: Molt4 (ATCC CRL-1582) and Ramos (ATCC CRL-1596) cells; mixed lysate 1:2
T2 sequence (P52333 1-1124): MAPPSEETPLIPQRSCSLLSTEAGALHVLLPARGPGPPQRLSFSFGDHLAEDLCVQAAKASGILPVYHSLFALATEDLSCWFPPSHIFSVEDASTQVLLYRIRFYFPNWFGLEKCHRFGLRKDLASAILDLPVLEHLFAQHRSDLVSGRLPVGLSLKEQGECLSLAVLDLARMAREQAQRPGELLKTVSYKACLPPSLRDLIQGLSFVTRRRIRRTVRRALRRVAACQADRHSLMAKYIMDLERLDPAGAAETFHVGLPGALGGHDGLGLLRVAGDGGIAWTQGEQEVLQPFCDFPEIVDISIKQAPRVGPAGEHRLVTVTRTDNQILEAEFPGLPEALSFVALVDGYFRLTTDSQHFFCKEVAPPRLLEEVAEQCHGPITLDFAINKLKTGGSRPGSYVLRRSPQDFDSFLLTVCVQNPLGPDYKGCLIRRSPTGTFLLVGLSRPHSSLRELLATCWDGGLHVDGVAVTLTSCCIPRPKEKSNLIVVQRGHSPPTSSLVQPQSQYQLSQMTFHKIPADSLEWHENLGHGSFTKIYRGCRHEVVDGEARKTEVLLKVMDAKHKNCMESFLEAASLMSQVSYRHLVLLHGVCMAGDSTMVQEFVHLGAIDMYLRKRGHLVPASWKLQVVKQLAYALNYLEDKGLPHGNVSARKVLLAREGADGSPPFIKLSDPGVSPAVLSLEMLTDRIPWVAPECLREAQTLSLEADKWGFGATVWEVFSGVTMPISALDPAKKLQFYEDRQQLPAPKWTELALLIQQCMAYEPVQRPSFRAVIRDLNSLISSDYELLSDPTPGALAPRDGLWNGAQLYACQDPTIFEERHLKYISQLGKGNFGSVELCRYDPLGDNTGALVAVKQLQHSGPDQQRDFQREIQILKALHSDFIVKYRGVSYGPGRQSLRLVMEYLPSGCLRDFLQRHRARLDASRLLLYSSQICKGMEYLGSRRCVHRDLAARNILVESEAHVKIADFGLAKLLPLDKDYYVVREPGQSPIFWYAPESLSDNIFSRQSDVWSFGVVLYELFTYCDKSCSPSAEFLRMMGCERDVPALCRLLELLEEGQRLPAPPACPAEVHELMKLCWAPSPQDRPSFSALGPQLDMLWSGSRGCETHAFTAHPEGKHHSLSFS
Description: Kinobeads assay with immunodetection, JAK3. The note with it: for pIC50: Kinobeads assay, mixed Molt4/Ramos lysate, read-out: Inhibition values (IC50) JAK3. Summed up: as §1

Assay [3] addresses T3, JAK2 (Homo sapiens, UniProt O60674).
T3 construct: endogenous in cells; host or cells: Molt4 (ATCC CRL-1582) and Ramos (ATCC CRL-1596) cells; mixed lysate 1:2
Briefly: Kinobeads assay with immunodetection, JAK2. The note with it: mixed Molt4/Ramos lysate, read-out: Inhibition values (IC50) JAK2. Put shortly: as §1

Assay [4] has as its target T4, JAK1 (Homo sapiens, UniProt P23458).
T4 construct: endogenous in cells; host or cells: Molt4 (ATCC CRL-1582) and Ramos (ATCC CRL-1596) cells; mixed lysate 1:2
Briefly: Kinobeads assay with immunodetection, JAK1. To be noted: for pIC50: Kinobeads assay, mixed Molt4/Ramos lysate, read-out: Inhibition values (IC50) JAK1. Put shortly:
as §1

SMILES strings stand for the structures. pIC50: −log10 of the molar value. Structures can show the parent of a compound that is named as a salt. Bounds are passed on as bounds.

T1 sequence (P29597 whole entry): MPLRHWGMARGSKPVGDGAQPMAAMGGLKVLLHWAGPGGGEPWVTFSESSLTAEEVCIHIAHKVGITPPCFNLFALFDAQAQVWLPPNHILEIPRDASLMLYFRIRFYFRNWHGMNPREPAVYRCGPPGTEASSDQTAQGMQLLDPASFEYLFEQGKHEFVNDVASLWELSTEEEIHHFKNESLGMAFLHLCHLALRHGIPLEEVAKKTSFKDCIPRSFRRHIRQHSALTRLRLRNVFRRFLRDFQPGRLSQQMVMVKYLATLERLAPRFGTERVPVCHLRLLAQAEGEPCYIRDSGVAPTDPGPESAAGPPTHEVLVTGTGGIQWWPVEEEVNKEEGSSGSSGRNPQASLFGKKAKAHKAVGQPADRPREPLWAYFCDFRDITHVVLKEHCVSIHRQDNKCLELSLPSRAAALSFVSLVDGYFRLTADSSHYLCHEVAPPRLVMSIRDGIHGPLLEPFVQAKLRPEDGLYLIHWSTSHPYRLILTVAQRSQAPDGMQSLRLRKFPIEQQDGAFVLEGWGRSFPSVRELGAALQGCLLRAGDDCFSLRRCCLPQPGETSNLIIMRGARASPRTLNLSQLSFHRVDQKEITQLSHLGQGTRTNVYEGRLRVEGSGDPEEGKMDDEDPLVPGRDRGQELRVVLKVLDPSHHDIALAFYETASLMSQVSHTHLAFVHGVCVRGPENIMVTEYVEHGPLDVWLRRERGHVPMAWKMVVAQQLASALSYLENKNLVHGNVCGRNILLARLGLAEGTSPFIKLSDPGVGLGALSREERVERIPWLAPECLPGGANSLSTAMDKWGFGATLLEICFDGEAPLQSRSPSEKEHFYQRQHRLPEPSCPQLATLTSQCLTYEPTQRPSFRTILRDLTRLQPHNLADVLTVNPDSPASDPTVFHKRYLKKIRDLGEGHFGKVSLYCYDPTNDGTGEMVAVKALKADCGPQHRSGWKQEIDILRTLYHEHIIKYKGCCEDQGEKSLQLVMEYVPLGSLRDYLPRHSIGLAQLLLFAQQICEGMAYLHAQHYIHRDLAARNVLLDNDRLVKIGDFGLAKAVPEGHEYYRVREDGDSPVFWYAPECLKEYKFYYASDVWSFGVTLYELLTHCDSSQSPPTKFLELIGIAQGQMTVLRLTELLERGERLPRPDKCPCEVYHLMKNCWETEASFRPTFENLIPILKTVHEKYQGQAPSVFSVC
T4 sequence (P23458 whole entry): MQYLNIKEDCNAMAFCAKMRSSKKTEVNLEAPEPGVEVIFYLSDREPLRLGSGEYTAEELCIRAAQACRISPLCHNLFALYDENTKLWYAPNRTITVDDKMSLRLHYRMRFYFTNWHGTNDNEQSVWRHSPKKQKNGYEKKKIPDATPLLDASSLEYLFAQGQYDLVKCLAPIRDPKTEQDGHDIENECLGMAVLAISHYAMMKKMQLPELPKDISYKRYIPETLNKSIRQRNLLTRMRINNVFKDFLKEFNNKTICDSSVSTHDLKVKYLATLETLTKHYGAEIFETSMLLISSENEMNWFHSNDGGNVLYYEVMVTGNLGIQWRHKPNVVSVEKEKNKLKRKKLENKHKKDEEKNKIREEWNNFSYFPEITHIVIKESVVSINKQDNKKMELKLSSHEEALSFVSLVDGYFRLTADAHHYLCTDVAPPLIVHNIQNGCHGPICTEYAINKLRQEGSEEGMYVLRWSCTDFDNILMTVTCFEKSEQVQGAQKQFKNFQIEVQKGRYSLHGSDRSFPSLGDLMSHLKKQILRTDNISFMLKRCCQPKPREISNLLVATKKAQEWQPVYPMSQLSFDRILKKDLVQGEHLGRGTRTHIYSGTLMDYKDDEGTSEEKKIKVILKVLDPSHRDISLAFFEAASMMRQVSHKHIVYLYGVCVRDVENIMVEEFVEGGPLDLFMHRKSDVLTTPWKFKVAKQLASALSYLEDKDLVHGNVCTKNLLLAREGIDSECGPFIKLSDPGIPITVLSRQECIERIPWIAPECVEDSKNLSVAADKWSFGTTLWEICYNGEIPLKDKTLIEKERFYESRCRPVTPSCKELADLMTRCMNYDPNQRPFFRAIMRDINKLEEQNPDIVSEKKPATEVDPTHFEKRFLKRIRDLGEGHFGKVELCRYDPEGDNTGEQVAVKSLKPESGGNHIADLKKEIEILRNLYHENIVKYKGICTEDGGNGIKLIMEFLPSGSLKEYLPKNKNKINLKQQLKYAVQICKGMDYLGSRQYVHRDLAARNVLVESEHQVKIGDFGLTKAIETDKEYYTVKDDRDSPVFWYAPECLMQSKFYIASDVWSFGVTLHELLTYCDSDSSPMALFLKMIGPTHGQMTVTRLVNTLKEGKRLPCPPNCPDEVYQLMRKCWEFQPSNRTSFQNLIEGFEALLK
T3 sequence (O60674 whole entry): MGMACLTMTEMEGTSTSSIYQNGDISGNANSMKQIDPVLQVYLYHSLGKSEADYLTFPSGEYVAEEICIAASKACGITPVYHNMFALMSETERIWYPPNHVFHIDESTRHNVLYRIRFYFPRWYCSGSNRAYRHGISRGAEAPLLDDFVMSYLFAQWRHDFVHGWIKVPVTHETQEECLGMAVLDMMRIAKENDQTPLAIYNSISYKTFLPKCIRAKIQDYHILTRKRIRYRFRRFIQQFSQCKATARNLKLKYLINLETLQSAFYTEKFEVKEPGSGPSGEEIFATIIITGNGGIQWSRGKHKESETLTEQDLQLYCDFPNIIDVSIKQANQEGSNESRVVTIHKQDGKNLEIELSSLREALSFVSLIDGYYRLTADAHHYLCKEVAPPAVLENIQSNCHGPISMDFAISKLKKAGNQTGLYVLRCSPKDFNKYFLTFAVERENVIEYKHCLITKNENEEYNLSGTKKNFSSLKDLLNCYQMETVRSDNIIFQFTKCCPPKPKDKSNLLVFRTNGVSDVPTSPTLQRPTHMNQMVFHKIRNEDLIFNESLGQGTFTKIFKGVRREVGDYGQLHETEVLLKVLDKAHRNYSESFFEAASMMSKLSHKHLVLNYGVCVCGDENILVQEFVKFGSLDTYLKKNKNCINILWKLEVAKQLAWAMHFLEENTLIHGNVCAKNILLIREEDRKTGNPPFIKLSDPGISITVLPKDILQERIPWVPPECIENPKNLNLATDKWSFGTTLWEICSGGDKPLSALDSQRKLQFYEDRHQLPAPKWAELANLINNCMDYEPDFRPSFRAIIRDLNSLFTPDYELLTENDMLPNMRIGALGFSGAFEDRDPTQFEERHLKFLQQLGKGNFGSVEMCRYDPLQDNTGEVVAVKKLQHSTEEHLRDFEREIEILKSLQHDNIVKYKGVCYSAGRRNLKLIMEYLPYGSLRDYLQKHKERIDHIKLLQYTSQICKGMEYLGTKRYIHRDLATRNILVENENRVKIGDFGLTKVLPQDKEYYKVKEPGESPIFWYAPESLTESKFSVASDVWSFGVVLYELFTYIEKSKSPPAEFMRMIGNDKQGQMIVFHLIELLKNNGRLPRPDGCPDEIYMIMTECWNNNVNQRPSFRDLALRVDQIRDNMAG

On to `Cn1cc(Nc2ncc(Cl)c(NC[C@H]3CCCN3S(=O)(=O)C3CC3)n2)cn1` [Example 98, (R)-5-chloro-N^4-((1-(cyclopropylsulfonyl)pyrrolidin-2-yl)methyl)-N^2-(1-methyl-1H-pyrazol-4-yl)pyrimidine-2,4-diamine], for which the pIC50 in assay [1] is over 7.00; in assay [2], over 7.00; in assay [3], 6.00 to 7.00; in assay [4], over 7.00. For the same compound, in assay [2], the “Selectivity ratio over JAK2, JAK3” value is reported as “JAK3 = 53”.

On to `CC(=O)N1CCCC[C@@H]1CNc1nc(Nc2cnn(C)c2)ncc1Cl` [Example 39, (R)-1-(2-(((5-chloro-2-((1-methyl-1H-pyrazol-4-yl)amino)pyrimidin-4-yl)amino)methyl)piperidin-1-yl)ethanone], for which the pIC50 was over 7.00 in assay [1], 6.00 to 7.00 in assay [2], 5.00 to 6.00 in assay [3] and 6.00 to 7.00 in assay [4]. The “Selectivity ratio over JAK2, Tyk2” value in assay [1] is “Tyk2 = 8”.

On to `Cn1cc(Nc2ncc(Cl)c(NCC3CN(S(C)(=O)=O)C3)n2)cn1` [Example 18, 5-chloro-N^2-(1-methyl-1H-pyrazol-4-yl)-N^4-((1-(methylsulfonyl)azetidin-3-yl)methyl)pyrimidine-2,4-diamine], for which the pIC50 in assay [1], in assay [2], in assay [3] and in assay [4] was under 5.00 throughout.

For the compound `Cc1cnc(Nc2cnn(C)c2)nc1NC[C@@H]1CCCN1CCC#N` [Example 106, (S)-3-(2-(((5-methyl-2-((1-methyl-1H-pyrazol-4-yl)amino)pyrimidin-4-yl)amino)methyl)pyrrolidin-1-yl)propanenitrile], the pIC50 is over 7.00 in assay [1], 6.00 to 7.00 in assay [2], 5.00 to 6.00 in assay [3] and over 7.00 in assay [4]. Besides, the “Selectivity ratio over JAK2, Tyk2” value in assay [1] is given as “Tyk2 = 38”.

`CS(=O)(=O)N1CC(CNc2nc(Nc3cnn(CCO)c3)ncc2Cl)C1` [Example 19, 2-(4-((5-chloro-4-(((1-(methylsulfonyl)azetidin-3-yl)methyl)amino)pyrimidin-2-yl)amino)-1H-pyrazol-1-yl)ethanol]: the pIC50 was 6.00 to 7.00 in assay [1], over 7.00 in assay [2], 5.00 to 6.00 in assay [3] and 6.00 to 7.00 in assay [4].

Regarding `C=CC(=O)N1CC[C@@H](CNc2nc(Nc3cnn(C)c3)ncc2Cl)C1` [Example 28, (S)-1-(3-(((5-chloro-2-((1-methyl-1H-pyrazol-4-yl)amino)pyrimidin-4-yl)amino)methyl)pyrrolidin-1-yl)prop-2-en-1-one], the pIC50 in assay [1] was 5.00 to 6.00; in assay [2], 6.00 to 7.00; in assay [3] it was under 5.00; in assay [4], 5.00 to 6.00.

As to `Cc1cnc(Nc2cnn(CC(F)F)c2)nc1NC[C@@H]1C[C@H](F)CN1CCC#N` [Example 121, 3-((2S,4S)-2-(((2-((1-(2,2-difluoroethyl)-1H-pyrazol-4-yl)amino)-5-methylpyrimidin-4-yl)amino)methyl)-4-fluoropyrrolidin-1-yl)propanenitrile], the pIC50 in assay [1] was over 7.00; in assay [2], 6.00 to 7.00; in assay [3], 5.00 to 6.00; in assay [4] it was over 7.00. Besides, in assay [4], the “Selectivity ratio over JAK2, JAK1” value is given as “JAK1 = 56”.

With `Cn1cc(Nc2ncc(Cl)c(NCC3CCCCC3)n2)cn1` [Example 47, 5-chloro-N^4-(cyclohexylmethyl)-N^2-(1-methyl-1H-pyrazol-4-yl)pyrimidine-2,4-diamine], the negative logarithm of the IC50 (pIC50) is 6.00 to 7.00 in assay [1], 6.00 to 7.00 in assay [2], 5.00 to 6.00 in assay [3] and 6.00 to 7.00 in assay [4]. In addition, the “Selectivity ratio over JAK2, JAK3” value in assay [2] is given as “JAK3 = 5”.

On to `C=CS(=O)(=O)N1CC[C@H](CNc2nc(Nc3cnn(C)c3)ncc2Cl)C1` [Example 25, (R)-5-chloro-N^2-(1-methyl-1H-pyrazol-4-yl)-N^4-((1-(vinylsulfonyl)pyrrolidin-3-yl)methyl)pyrimidine-2,4-diamine], for which the negative-log IC50 (pIC50) in assay [1] is 6.00 to 7.00; in assay [2], over 7.00; in assay [3] it was under 5.00; in assay [4], 6.00 to 7.00. In addition, the “Selectivity ratio over JAK2, JAK3” value in assay [2] is “JAK3 = 556”.

As for `Cc1cnc(Nc2cnn(C)c2)nc1NC[C@@H]1C[C@H](F)CN1C(=O)CC#N` [Example 103, 3-((2S,4S)-4-fluoro-2-(((5-methyl-2-((1-methyl-1H-pyrazol-4-yl)amino)pyrimidin-4-yl)amino)methyl)pyrrolidin-1-yl)-3-oxopropanenitrile], the pIC50 is 6.00 to 7.00 in assay [1], 6.00 to 7.00 in assay [2], under 5.00 in assay [3] and over 7.00 in assay [4]. For the same compound, the “Selectivity ratio over JAK2, JAK1” value in assay [4] is listed as “JAK1 = 150”.

`Cc1cnc(Nc2cnn(CC(F)F)c2)nc1NC[C@H]1CCN(CCC#N)C1` [Example 128, (R)-3-(3-(((2-((1-(2,2-difluoroethyl)-1H-pyrazol-4-yl)amino)-5-methylpyrimidin-4-yl)amino)methyl)pyrrolidin-1-yl)propanenitrile]: the negative-log IC50 (pIC50) is 6.00 to 7.00 in assay [1], 6.00 to 7.00 in assay [2], 5.00 to 6.00 in assay [3] and over 7.00 in assay [4]. For the same compound, in assay [4], the “Selectivity ratio over JAK2, JAK1” value is “JAK1 = 77”.

Consider `Cc1cnc(Nc2cnn(CC(F)F)c2)nc1NC[C@H]1CCN(CCS(C)(=O)=O)C1` [Example 127, (R)—N^2-(1-(2,2-difluoroethyl)-1H-pyrazol-4-yl)-5-methyl-N^4-((1-(2-(methylsulfonyl)ethyl)pyrrolidin-3-yl)methyl)pyrimidine-2,4-diamine], for which the pIC50 in assay [1] was 6.00 to 7.00; in assay [2], 6.00 to 7.00; in assay [3], 5.00 to 6.00; in assay [4], over 7.00. Besides, the “Selectivity ratio over JAK2, JAK1” value in assay [4] was “JAK1 = 83”.

`CN(C)C(=O)Cn1cc(Nc2ncc(Cl)c(NC[C@@H]3CCCN3S(C)(=O)=O)n2)cn1` [Example 69, (S)-2-(4-(5-chloro-4-((1-(methylsulfonyl)pyrrolidin-2-yl)methylamino)pyrimidin-2-ylamino)-1H-pyrazol-1-yl)-N,N-dimethylacetamide]: the pIC50 is over 7.00 in assay [1], over 7.00 in assay [2], 6.00 to 7.00 in assay [3] and over 7.00 in assay [4]. In addition, the “Selectivity ratio over JAK2, JAK3” value in assay [2] is on record as “JAK3 = 44”.

For the compound `Cn1cc(Nc2ncc(F)c(NC[C@@H]3CCCN3)n2)cn1` [Example 71, (S)-5-fluoro-N^2-(1-methyl-1H-pyrazol-4-yl)-N^4-(pyrrolidin-2-ylmethyl)pyrimidine-2,4-diamine Hydrochloride], the pIC50 was 5.00 to 6.00 in assay [1], under 5.00 in assay [2], under 5.00 in assay [3] and 5.00 to 6.00 in assay [4].

Turning to `C=CC(=O)N1CCC[C@H]1CNc1nc(Nc2cnn(C)c2)ncc1Cl` [Example 10, (S)-1-(2-(((5-chloro-2-((1-methyl-1H-pyrazol-4-yl)amino)pyrimidin-4-yl)amino)methyl)pyrrolidin-1-yl)prop-2-en-1-one], the pIC50 was 5.00 to 6.00 in assay [1], 5.00 to 6.00 in assay [2], under 5.00 in assay [3] and 5.00 to 6.00 in assay [4].

With `Cc1cnc(Nc2cnn(C)c2)nc1NC[C@@H]1CCCN1` [Example 73, (S)-5-methyl-N^2-(1-methyl-1H-pyrazol-4-yl)-N^4-(pyrrolidin-2-ylmethyl)pyrimidine-2,4-diamine Hydrochloride], the pIC50 is 5.00 to 6.00 in assay [1], 5.00 to 6.00 in assay [2], under 5.00 in assay [3] and 5.00 to 6.00 in assay [4].
